In brackets after ≈: the same amount, converted by molar mass. Blank lines part the entries; values can stand above or below the compound they belong to.
Tests used:
[1] = test system: T. gondii RH strain tachyzoites; assay: [3H]uracil incorporation assay of T. gondii proliferation in L929 host cells; format: cell-based, Toxoplasma gondii; settings: assay A [3H]uracil incorporation; for intensity of T. gondii proliferation: vs untreated blank
Experimental: In the next step of our studies, the prepared 1,4-disubstituted thiosemicarbazides (series 1–3) were used to assess the inhibition of T. gondii growth in vitro. For this purpose, intracellular parasites (tachyzoites) of RH strain were incubated with different concentrations of the thiosemicarbazides ranging from 1 to 100 µg/mL. Inhibition of the parasite growth was monitored by measuring the specific incorporation of [^3H]uracil in the parasite’s nucleic acids.
The tachyzoites of T. gondii strain RH – intraspecies type I (ATCC_ Number 50174™) were maintained through passages on female C57BL/6 (H-2^b) and BALB/c (H-2^d) mice with genetically determined high and low susceptibility (respectively) to T. gondii infection (10–12 weeks old). Tachyzoites washed out from the peritoneum cavity were once expanded in vitro on L929 cells.
L929, (2 × 10^4 cells/100 µL/well) were grown in complete medium (IMDM) on 96-well plates. After 24 h incubation, a medium was removed and then T. gondii RH tachyzoites, suspended in culture medium supplemented with 1.0, 5.0, 10.0, 50.0 and 100.0 μg/mL 1,4-disubstituted thiosemicarbazides (1g, 2b, 2m, 3d, 3l) and as a control-sulfadiazine, were added (2 × 10^5 tachyzoites/200 µL/well) to the cell monolayers. After subsequent 48 h incubation 1 µCi/well of [^3H] uracil (Moravek Biochemicals Inc., Brea, CA, USA) was applied to each microculture for further 18–20 h. The amount of the isotope incorporated into the parasite nucleic acid pool, corresponding to the parasite growth, was measured by liquid scintillation counting with 1450 Microbeta Plus Liquid Scintillation Counter (Wallac Oy, Turku, Finland).

[2] = test system: T. gondii RH strain; assay: quantitative real-time PCR (B1 gene) of T. gondii in infected L929 cells; format: cell-based, Toxoplasma gondii; settings: assay B qRT-PCR, L929 host cells
Experimental: T. gondii genomic DNA was isolated from the tachyzoites of RH strain with Wizard® SV Genomic DNA Purification System (Promega, Madison, WI, USA) according to the manufacturer’s instruction. The DNA concentration and purity were measured using a NanoPhotometer (Implen, München, Germany), while the integrity of the extracted DNA was tested using an ethidium bromide-stained agarose gel. DNA was used for the detection and quantitationof T. gondii in analyzed samples and it was stored at −20 °C until use.
A quantitative real-time PCR (qRT-PCR) assay, targeting B1 gene was performed to detect and to quantitate T. gondii in analyzed samples (1g, 2b, 2m, 3d, 3l and sulphadiazine) according to the modified protocol of Wahab et al.. […] Amplification was carried out on a 7900HT real-time PCR system (Applied Biosystems, Carlsbad, CA, USA). The reaction mixtures (25 µL) consisted of 1x TaqMan PCR master mix supplemented with ROX (Applied Biosystems), 300 nM probe, 900 nM of each primer and 2 µL of template DNA. For quantification a standard curve was constructed using 10-fold serial dilutions of DNA extracted from a known number of T. gondii. The cycling parameters were: 50 °C for 2 min, initial activation at 95 °C for 10 min, and 45 two-step cycles of 95 °C for 15 s and 60 °C for 1 min. All samples were analyzed in triplicate.

[3] = test system: L929 cells; assay: MTT cell viability assay (ISO 10993-5); format: cell-based, mouse; settings: for viability of L929 cells: 24 h, ± SD; for CC30 (concentration required for 30% proliferation inhibition in vitro): L929 cells
Experimental: (§1) Cell line L929 (ATTC® Catalog No. […] The MTT assay was used according to international standards: ISO 10993-5:2009(E), Biological evaluation of medical devices, Part 5: Tests for in vitro cytotoxicity. […] Then, 1 mg/mL MTT (50 μL/well) was added to each well and incubated at 37 °C, 10% CO2 for 2 h. Mitochondrial dehydrogenases of viable cells reduced the yellowish water-soluble MTT to water-insoluble formazan crystals, which were solubilized with dimethyl sulfoxide (DMSO). The cell culture medium was aspirated cautiously, after which 150 μL DMSO was added to each well and mixed thoroughly. Optical density (OD) was read on the ELISA reader (Multiskan EX, Labsystems, Vienna, VA, USA) at 550 nm. […] All experiments were performed in triplicate.

[4] = test system: Gram-positive and Gram-negative bacterial strains; assay: antibacterial assay (disc diffusion / agar dilution); format: cell-based; settings: even at high concentrations
Description: The following microorganisms were used in this study: Staphylococcus aureus (ATCC 25923, ATCC 6538, ATCC 29213, NCTC 4163), Staphylococcus epidermidis ATCC 12228, Bacillus subtilis ATCC 6633, Bacillus cereus ATCC 11778, Micrococcus luteus (ATCC 9341, ATCC 10240), Escherichia coli (ATCC 10538, ATCC 25922, NCTC 8196), […] NCTC 4635, Pseudomonas aeruginosa (ATCC 15442, ATCC 27853, NCTC 6749), and Bordetella bronchiseptica ATCC 4617. Initially, antibacterial activity of thiosemicarbazide derivatives was screened on the basis of growth inhibition zone (giz) utilizing the disc diffusion method, according to the Clinical and Laboratory Standards Institute guidelines. For compounds showing the inhibitory effect on the growth of tested bacteria, monitored as an appearance of giz, the minimal inhibitory concentrations (MICs) were determined using agar dilution method, according to the Clinical and Laboratory Standards Institute guidelines. The minimal inhibitory concentrations (MICs) were defined as the lowest concentration of the compound preventing growth of the tested microorganism. In both methods, recommended Mueller-Hinton II agar medium (Becton Dickinson, Heidelberg, Germany) was used. Solutions containing the tested agents were prepared in methanol or DMSO. Ciprofloxacin was used as control antimicrobial agent.

[5] = solubility under the anti-T. gondii protocol conditions; format: physicochemical; settings: anti-T. gondii assay protocol, 1 to 100 µg/mL
Experimental: In the next step of our studies, the prepared 1,4-disubstituted thiosemicarbazides (series 1–3) were used to assess the inhibition of T. gondii growth in vitro. For this purpose, intracellular parasites (tachyzoites) of RH strain were incubated with different concentrations of the thiosemicarbazides ranging from 1 to 100 µg/mL. Inhibition of the parasite growth was monitored by measuring the specific incorporation of [^3H]uracil in the parasite’s nucleic acids. Unfortunately, among the 15 compounds tested, derivatives 1a–1e, 1k, 1l, 2f, 2i, 2j, and 3h were insoluble under the protocol conditions and, consequently, they were eliminated from further experiments. The percentages of the parasite growth inhibition in L929 cells by the remaining compounds 1g, 2b, 3d, 3l and the control drug-sulfadiazine as well as IC50 values are shown in Table 1.
A preliminary assumption was thus put forward that the presence of both the five-membered hetaryl moiety at N1 position and the aryl moiety at N4 position of thiosemicarbazide core are the key functionalities required for potent anti-T. gondii activity of thiosemicarbazide-based compounds, which may be directly linked with the electronic structure of the molecule. In order to verify the preliminary hypothesis, 4-ethyl-1-(thiophen-2-yl)carbonylthiosemicarbazide (1m), 4-cyclohexyl-1-(thiophen-2-yl)carbonylthiosemicarbazide (1n), and 4-ethyl-1-(2-methylfuran-3-yl)carbonylthio-semicarbazide (2m) were synthesized and their bioactivity was tested. Unfortunately, derivatives 1m and 1n were insoluble under the protocol conditions and, consequently, they were eliminated from further experiments. […] The assumption of the existence of the relationship between the anti-T. gondii activity of the studied thiosemicarbazides and their molecular structure was also confirmed based on DFT calculations. Figure 3 illustrates the electrostatic potential mapped on the density surface using the Gaussview program. Neutral fragments are characterized by the green color of the surface. The negative charge is represented by red, while the positive charge is marked in blue. If compound 1g is excluded from the consideration, the biological activity correlates well with the dipole moment of the molecule. In this series it seems that the activity depends on the bimodal partial negative charge developed on the carbonyl oxygen and another moiety on the same side of the molecule (a sulfur atom in 2b and 3d). Its low value in 3l and lack in 2m may be responsible for the lower activity. […] It contains, however, two partial negative charge centers as the series discussed above and an additional such center on the fluorine atom. Comparison of the biological activity of 1g and 2m seems to indicate the crucial role of the second negative charge density on the top of the molecule on a moiety other than the carbonyl oxygen. Another observation that comes from the analysis of the presented structures is that the biological activity is pronounced when the methyl group of the five-membered ring is directed away from the carbonyl group.

[6] = MTT cell viability assay (ISO 10993-5); format: cell-based, mouse; settings: mouse, L929 mouse fibroblast cells, 24 h, ± SD
Experimental: as §1

[7] = test system: T. gondii RH strain tachyzoites; assay: [3H]uracil incorporation assay of T. gondii proliferation in L929 host cells; format: cell-based; settings: Toxoplasma gondii, L929, read-out: IC50 (50% of T. gondii proliferation inhibition in vitro)

Compound: 4-ethyl-1-(2-methylfuran-3-yl)carbonylthio-semicarbazide [Compound 2m]
intensity of T. gondii proliferation ([1]; 1 µg/mL): 98.00 ± 19.53% | intensity of T. gondii proliferation ([1]; 5 µg/mL): 75.74 ± 14.62% | intensity of T. gondii proliferation ([1]; 10 µg/mL): 60.61 ± 9.56 % | intensity of T. gondii proliferation ([1]; 50 µg/mL): 66.49 ± 11.38 % | intensity of T. gondii proliferation ([1]; 100 µg/mL): 57.59 ± 15.02 % | IC50 (50% of T. gondii proliferation inhibition in vitro) [1]: 191.04 µg/mL | intensity of T. gondii proliferation ([2]; 50 µg/mL): 51.03 ± 7.02 % | intensity of T. gondii proliferation ([2]; 100 µg/mL): 53.03 ± 9.87 % | viability of L929 cells ([3]; 1 µg/mL): 104.05 ± 0.12% | viability of L929 cells ([3]; 5 µg/mL): 94.44 ± 2.62% | viability of L929 cells ([3]; 10 µg/mL): 94.05 ± 5.13% | viability of L929 cells ([3]; 50 µg/mL): 90.49 ± 2.99 % | viability of L929 cells ([3]; 100 µg/mL): 92.17 ± 2.31 % | viability of L929 cells ([3]; 500 µg/mL): 80.40 ± 2.74 % | CC30 (concentration required for 30% proliferation inhibition in vitro) [3]: >500 µg/mL | growth-inhibiting effect on bacterial strains [4]: no growth-inhibiting effect

Compound: Cc1ccccc1NC(=S)NNC(=O)c1cccs1 [Compound 1b, 4-(2-Methylphenyl)-1-(thiophen-2-yl)carbonylthiosemicarbazide]
melting point: 155 to 157 °C

Compound: Cc1cccc(NC(=S)NNC(=O)c2cccs2)c1 [Compound 1e, 4-(3-Methylphenyl)-1-(thiophen-2-yl)carbonylthiosemicarbazide]
melting point: 188 to 190 °C

Compound: O=C(NNC(=S)Nc1ccc([N+](=O)[O-])cc1)c1cccs1 [Compound 1k]
solubility under the protocol conditions [5]: insoluble

Compound: O=C(NNC(=S)Nc1ccc(F)cc1F)c1cccs1 [Compound 1l]
solubility under the protocol conditions [5]: insoluble

Compound: CCN=C(S)NNC(=O)c1cccs1 [Compound 1m, 4-ethyl-1-(thiophen-2-yl)carbonylthiosemicarbazide]
solubility under the protocol conditions [5]: insoluble

Compound: O=C(NNC(=S)NC1CCCCC1)c1cccs1 [Compound 1n, 4-cyclohexyl-1-(thiophen-2-yl)carbonylthiosemicarbazide]
solubility under the protocol conditions [5]: insoluble

Compound: Cc1ccccc1NC(=S)NNC(=O)c1ccoc1C [Compound 2b]
intensity of T. gondii proliferation ([1]; 1 µg/mL): 98.24 ± 23.83% | intensity of T. gondii proliferation ([1]; 5 µg/mL): 107.95 ± 24.88% | intensity of T. gondii proliferation ([1]; 10 µg/mL): 112.25 ± 22.91 % | intensity of T. gondii proliferation ([1]; 50 µg/mL): 58.78 ± 11.49 % | intensity of T. gondii proliferation ([1]; 100 µg/mL): 8.10 ± 2.78 % | intensity of T. gondii proliferation ([2]; 50 µg/mL): 41.37 ± 9.98 % | intensity of T. gondii proliferation ([2]; 100 µg/mL): 7.29 ± 1.56 % | viability at 24 h, 1 µg/mL ([6]; 1 µg/mL): 95.3 ± 9.52% | viability at 24 h, 5 µg/mL ([6]; 5 µg/mL): 94 ± 1.78% | viability at 24 h, 10 µg/mL ([6]; 10 µg/mL): 91.9 ± 5.21% | viability at 24 h, 50 µg/mL ([6]; 50 µg/mL): 84.5 ± 1.43% | viability at 24 h, 100 µg/mL ([6]; 100 µg/mL): 78.2 ± 1.61% | viability at 24 h, 500 µg/mL ([6]; 500 µg/mL): 30.3 ± 0.86% | CC30 (concentration required for 30% proliferation inhibition in vitro) [3]: 187.51 µg/mL | growth-inhibiting effect on bacterial strains [4]: no growth-inhibiting effect | IC50 [7]: 59 µg/mL (≈ 204 µM)

Next, values leading:

solubility under the protocol conditions [5]: insoluble
Compound: Cc1ccc(NC(=S)NNC(=O)c2ccoc2C)cc1 [Compound 2f]

solubility under the protocol conditions [5]: insoluble
Compound: Cc1occc1C(=O)NNC(=S)Nc1ccc(Br)cc1 [Compound 2i]

solubility under the protocol conditions [5]: insoluble
Compound: Cc1occc1C(=O)NNC(=S)Nc1ccc(I)cc1 [Compound 2j]

solubility under the protocol conditions [5]: insoluble
Compound: Cc1nnsc1C(=O)NNC(=S)Nc1ccc(Cl)cc1 [Compound 3h]
